Legend:
Aβtotal = assay: Demonstration of in vivo efficacy, brain Aβtotal lowering (ELISA); settings: mouse brain, 30 mpk
Text: (§1) To determine whether acute administration of an Aβ42 peptide lowering agent would reduce Aβ peptide levels in vivo, non-transgenic rodents, e.g. mice or rats were used. Animals treated with the Aβ peptide lowering agent were examined and compared to those untreated or treated with vehicle and brain levels of soluble Aβ42 and total Aβ were quantitated by standard techniques, for example, using ELISA.
(§2) A typical protocol for measuring Aβ42 lowering in vivo is shown but it is only one of many variations that could be used to optimize the levels of detectable Aβ. For example, Aβ peptide lowering compounds were formulated in 20% hydroxypropyl 3 cyclodextrin. The Aβ peptide lowering agents were administered as a single oral dose (p.o.) or a single subcutaneous dose (s.c.) to overnight fasted animals. After a certain time, usually 2 or 4 h (as indicated in Table 19), the animals were sacrificed and Aβ42 levels were analysed.
(§3) Blood was collected by decapitation and exsanguinations in EDTA-treated collection tubes. Blood was centrifuged at 1900 g for 10 minutes (min) at 4° C. and the plasma recovered and flash frozen for later analysis. The brain was removed from the cranium and hindbrain. The cerebellum was removed and the left and right hemisphere were separated. The left hemisphere was stored at −18° C. for quantitative analysis of test compound levels. The right hemisphere was rinsed with phosphate-buffered saline (PBS) buffer and immediately frozen on dry ice and stored at −80° C. until homogenization for biochemical assays.
(§4) Mouse brains from non-transgenic animals were resuspended in 8 volumes of 0.4% DEA (diethylamine)/50 mM NaCl containing protease inhibitors (Roche-11873580001 or 04693159001) per gram of tissue, e.g. for 0.158 g brain, add 1.264 ml of 0.4% DEA. All samples were homogenized in the FastPrep-24 system (MP Biomedicals) using lysing matrix D (MPBio #6913-100) at 6 m/s for 20 seconds. Homogenates were centrifuged at 221.300×g for 50 min. The resulting high speed supernatants were then transferred to fresh eppendorf tubes. Nine parts of supernatant were neutralized with 1 part 0.5 M Tris-HCl pH 6.8 and used to quantify Aβtotal and Aβ42.
(§5) To quantify the amount of Aβtotal and Aβ42 in the soluble fraction of the brain homogenates, Enzyme-Linked-Immunosorbent-Assays were used. Briefly, the standards (a dilution of synthetic Aβ1-40 and Aβ1-42, Bachem) were prepared in 1.5 ml Eppendorf tube in Ultraculture, with final concentrations ranging from 10000 to 0.3 pg/ml. The samples and standards were co-incubated with HRPO-labelled N-terminal antibody for Aβ42 detection and with the biotinylated mid-domain antibody 4G8 for Aβtotal detection. […] The plate was allowed to incubate overnight at 4° C. in order to allow formation of the antibody-amyloid complex. Following this incubation and subsequent wash steps the ELISA for Aβ42 quantification was finished by addition of Quanta Blu fluorogenic peroxidase substrate according to the manufacturer's instructions (Pierce Corp., Rockford, Ill.). A reading was performed after 10 to 15 min (excitation 320 nm/emission 420 nm).
For Aβtotal detection, a Streptavidine-Peroxidase-Conjugate was added, followed 60 min later by an additional wash step and addition of Quanta Blu fluorogenic peroxidase substrate according to the manufacturer's instructions (Pierce Corp., Rockford, Ill.). A reading was performed after 10 to 15 min (excitation 320 nm/emission 420 nm).

P-gp = target: T1, P-gp (Homo sapiens, UniProt P08183); assay: Transepithelial transport of test compounds through LLC-MDR1 monolayers; format: in vitro ADME; settings: for Papp A→B at 120 min, 1 μM: read-out: A to B (Apparent Permeability, Papp); for Papp B→A at 120 min, 1 μM: read-out: B to A (Apparent Permeability, Papp)
T1 construct: expressed in transfected cells; host or cells: LLC-PK1 cells stably transduced with MDR1 (LLC-MDR1)
Procedure: Brief Assay Description for the Measurement of Transepithelial Transport of Test Compounds Through LLC-MDR1 Monolayers
The purpose of this assay was to assess both the in vitro passive permeability of test compounds and their ability to be transported substrates of P-gp using LLC-PK1 cells stably transduced with MDR1 in a trans-well system. The positive control for transport was ^3H-digoxin (30 nM) and the positive control inhibitor was GF120918 (5 μM). The marker compound for low permeability was ^14C-Mannitol (1 μM). The test compound concentration was 1 μM.
The integrity of the cellular monolayer was assessed in each incubation well through the inclusion of the fluorescent, low permeability marker compound, Fluorescein.
In detail, LLC-MDR1 cells were seeded on 24-well cell culture inserts (Millicell®-PCF, 0.4 μm, 13 mm diameter, 0.7 cm^2) at 400,000 cells/cm^2. Cell culture medium consisted of Medium 199 supplemented with 10% Foetal Bovine Serum (FBS) and 100 U/ml Penicillin/streptomycin and was replaced the day after seeding and the day before the experiment. The transport experiment was performed 5 days after seeding. On the day of the experiment, solutions of the test compounds were applied to the apical or basolateral side of the monolayers to assess transport in the A to B and B to A directions, respectively. The medium used in the assay was (OPTI-MEM (1×) (GIBCO) with 1 w/v % Bovine Serum Albumin. Inserts were incubated at 37° C. in a humidified incubator containing 5% CO2. Samples from the acceptor and donor compartments were collected after an incubation time of 120 min, to assess the permeability and to allow estimation of the test compound recovery during the experiment, respectively. Transport experiments were performed in triplicate. Absolute test compound concentrations were measured using LC-MS/MS and quantified via a calibration curve.

Aβ42 = assay: Demonstration of in vivo efficacy, brain Aβ42 lowering (ELISA); settings: mouse brain, 30 mpk
Text: as §1, §2, §3, §4, §5

Abeta 1-42 = assay: Cellular αLisa assay in SKNBE2 cells, Abeta 1-42; format: cell-based, human; settings: incubated for 18 hours; for IC50: Homo sapiens, SKNBE2, 18 h, read-out: Cellular αLisa assay in SKNBE2 cells Abeta 42 pIC50 (converted)
In short: (§6)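 Human neuroblastoma SKNBE2 cells expressing wild-type hAPP695 were incubated with compound for 18 hours. Secreted Abeta total and Abeta 1-42 in medium were quantified by sandwich αLisa: biotinylated AbN/25 on streptavidin donor beads with Ab4G8 (total) or cAb42/26 (1-42) acceptor beads. Light emission read after 1 hour (ex 650 nm, em 615 nm).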

Abeta total = assay: Cellular αLisa assay in SKNBE2 cells, Abeta total; format: cell-based, human; settings: incubated for 18 hours; for IC50: Homo sapiens, SKNBE2, 18 h, read-out: Cellular αLisa assay in SKNBE2 cells Abetatotal pIC50 (converted)
In short: as §6

[1] = target: recombinant BACE1 protein (Homo sapiens, UniProt P56817); assay: Biochemical FRET based assay; settings: recombinant BACE1 1 μg/ml, 120 minutes at room temperature, pH 5.0; for IC50: read-out: Biochemical FRET based assay pIC50 (converted)
In short: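 Recombinant BACE1 (1 μg/ml final) was incubated 120 minutes at room temperature with […] Mca/Dnp-labelled 13-mer APP Swedish-mutant peptide in 40 mM citrate pH 5.0, 0.04% PEG, 4% DMSO, with or without compound. Cleavage was measured as fluorescence (ex 320/em 405 nm), given as RFU difference between T120 and T0.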

T1 sequence (P08183 whole entry): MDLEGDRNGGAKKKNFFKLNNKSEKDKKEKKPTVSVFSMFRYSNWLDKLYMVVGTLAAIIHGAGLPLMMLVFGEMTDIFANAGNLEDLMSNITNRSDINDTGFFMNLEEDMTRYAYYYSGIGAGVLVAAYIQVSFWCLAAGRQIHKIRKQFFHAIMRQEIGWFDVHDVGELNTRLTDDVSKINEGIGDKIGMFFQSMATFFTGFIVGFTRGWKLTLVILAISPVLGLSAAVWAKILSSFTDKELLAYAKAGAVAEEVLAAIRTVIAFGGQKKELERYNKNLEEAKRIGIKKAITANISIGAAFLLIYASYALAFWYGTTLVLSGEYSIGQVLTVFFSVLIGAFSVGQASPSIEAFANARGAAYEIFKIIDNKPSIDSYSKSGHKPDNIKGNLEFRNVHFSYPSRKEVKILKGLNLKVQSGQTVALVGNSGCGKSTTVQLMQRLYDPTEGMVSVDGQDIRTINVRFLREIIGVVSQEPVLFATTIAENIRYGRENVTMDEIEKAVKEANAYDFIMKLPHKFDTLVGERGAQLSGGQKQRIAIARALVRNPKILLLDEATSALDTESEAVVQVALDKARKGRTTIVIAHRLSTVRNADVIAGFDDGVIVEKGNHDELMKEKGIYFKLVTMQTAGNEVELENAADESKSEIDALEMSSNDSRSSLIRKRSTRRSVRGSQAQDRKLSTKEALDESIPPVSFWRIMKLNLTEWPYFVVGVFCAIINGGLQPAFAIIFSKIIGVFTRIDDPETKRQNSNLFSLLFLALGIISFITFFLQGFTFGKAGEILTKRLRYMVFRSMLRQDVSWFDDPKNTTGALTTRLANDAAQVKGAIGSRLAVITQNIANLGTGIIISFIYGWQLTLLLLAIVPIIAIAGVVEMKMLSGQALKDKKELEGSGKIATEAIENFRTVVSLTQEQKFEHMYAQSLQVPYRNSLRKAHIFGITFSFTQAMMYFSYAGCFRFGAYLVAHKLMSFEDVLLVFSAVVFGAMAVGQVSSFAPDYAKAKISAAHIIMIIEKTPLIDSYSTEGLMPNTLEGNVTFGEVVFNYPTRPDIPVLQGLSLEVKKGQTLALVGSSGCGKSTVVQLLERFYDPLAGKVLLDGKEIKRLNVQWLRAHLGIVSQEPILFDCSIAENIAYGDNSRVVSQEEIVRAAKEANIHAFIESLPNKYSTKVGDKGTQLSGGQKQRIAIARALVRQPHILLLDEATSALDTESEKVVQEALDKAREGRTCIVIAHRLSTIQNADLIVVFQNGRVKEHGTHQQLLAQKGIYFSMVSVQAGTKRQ
recombinant BACE1 protein, sequence (P56817 46-501): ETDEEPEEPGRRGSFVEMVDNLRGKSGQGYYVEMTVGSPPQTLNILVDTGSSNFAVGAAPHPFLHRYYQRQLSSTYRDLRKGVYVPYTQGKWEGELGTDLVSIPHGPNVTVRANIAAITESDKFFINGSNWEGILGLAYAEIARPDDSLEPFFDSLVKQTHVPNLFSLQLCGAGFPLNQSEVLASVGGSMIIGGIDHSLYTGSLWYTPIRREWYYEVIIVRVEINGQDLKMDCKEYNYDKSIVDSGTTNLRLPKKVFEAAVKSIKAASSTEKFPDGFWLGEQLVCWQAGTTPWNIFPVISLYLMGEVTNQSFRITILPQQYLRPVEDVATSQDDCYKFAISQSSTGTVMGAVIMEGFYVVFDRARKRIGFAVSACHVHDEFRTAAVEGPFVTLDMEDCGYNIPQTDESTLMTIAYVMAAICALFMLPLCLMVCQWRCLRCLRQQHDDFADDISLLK

Structure (SMILES)	A to B (Apparent Permeability, Papp) (P-gp; LLC-MDR1 monolayers, 1 μM test compound, 120 minutes, apical to basolateral, absence of GF120918)	B to A (Apparent Permeability, Papp) (P-gp; LLC-MDR1 monolayers, 1 μM test compound, 120 minutes, basolateral to apical)	BA/AB (P-gp; LLC-MDR1 monolayers, ratio of B to A and A to B permeation rates)	Cellular αLisa assay in SKNBE2 cells Abeta 42 pIC50 (Abeta 1-42)	Cellular αLisa assay in SKNBE2 cells Abetatotal pIC50 (Abeta total)	Biochemical FRET based assay pIC50 [1]	efflux ratio at 120 min, 1 μM (P-gp; pig, LLC-PK1, LLC-MDR1 monolayers, ratio of B to A and A to B permeation rates, read-out: BA/AB)	Papp A→B at 120 min, 1 μM (P-gp; pig, LLC-PK1)	Papp B→A at 120 min, 1 μM (P-gp; pig, LLC-PK1)	IC50 (Abeta 1-42)	IC50 (Abeta total)	IC50 [1]	Aβtotal (% Ctrl)_Mean (Aβtotal; s.c., 4 h)	Aβ42 (% Ctrl)_Mean (Aβ42; s.c., 4 h)	Aβtotal (% Ctrl)_Mean (Aβtotal; s.c., 2 h)	Aβ42 (% Ctrl)_Mean (Aβ42; s.c., 2 h)	Aβtotal (% Ctrl)_Mean (Aβtotal; p.o., 4 h)	Aβ42 (% Ctrl)_Mean (Aβ42; p.o., 4 h)
CC1(c2cc(-c3cncnc3)c(F)cc2F)COCC(N)=N1 (single isomer, unassigned) [Compound 55]	9.5 ×10⁻⁶ cm/s	34.4 ×10⁻⁶ cm/s	3.6	6.89	6.99	5.55	–	–	–	–	–	–	87 % Ctrl	88 % Ctrl	–	–	–	–
C[C@@]1(c2cc(-c3cncnc3)c(F)cc2F)N=C(N)CO[C@H]1F (single isomer, unassigned) [Compound 82, (S*,S*)-5-(2,4-difluoro-5-pyrimidin-5-ylphenyl)-6-fluoro-5-methyl-5,6-dihydro-2H-1,4-oxazin-3-amine]	–	–	–	–	–	–	2.3	10.5 ×10⁻⁶ cm/s	23.9 ×10⁻⁶ cm/s	251 nM	245 nM	631 nM	–	–	44 % Ctrl	57 % Ctrl	–	–
CC1(c2cc(NC(=O)c3ccc(Cl)cn3)ccc2F)N=C(N)COC1F (single isomer, unassigned) [Compound 134]	–	–	–	8.39	8.42	–	–	8.9 ×10⁻⁶ cm/s	17.7 ×10⁻⁶ cm/s	–	–	–	–	–	–	–	35 % Ctrl	27 % Ctrl

More lines, main results first:

A to B (Apparent Permeability, Papp) (P-gp; LLC-MDR1 monolayers, 1 μM test compound, 120 minutes, apical to basolateral, absence of GF120918)	B to A (Apparent Permeability, Papp) (P-gp; LLC-MDR1 monolayers, 1 μM test compound, 120 minutes, basolateral to apical)	BA/AB (P-gp; LLC-MDR1 monolayers, ratio of B to A and A to B permeation rates)	Cellular αLisa assay in SKNBE2 cells Abeta 42 pIC50 (Abeta 1-42)	Cellular αLisa assay in SKNBE2 cells Abetatotal pIC50 (Abeta total)	Biochemical FRET based assay pIC50 [1]	efflux ratio at 120 min, 1 μM (P-gp; pig, LLC-PK1, LLC-MDR1 monolayers, ratio of B to A and A to B permeation rates, read-out: BA/AB)	Papp A→B at 120 min, 1 μM (P-gp; pig, LLC-PK1)	Papp B→A at 120 min, 1 μM (P-gp; pig, LLC-PK1)	IC50 (Abeta 1-42)	IC50 (Abeta total)	IC50 [1]	Structure (SMILES)	Aβtotal (% Ctrl)_Mean (Aβtotal; s.c., 4 h)	Aβ42 (% Ctrl)_Mean (Aβ42; s.c., 4 h)	Aβtotal (% Ctrl)_Mean (Aβtotal; s.c., 2 h)	Aβ42 (% Ctrl)_Mean (Aβ42; s.c., 2 h)	Aβtotal (% Ctrl)_Mean (Aβtotal; p.o., 4 h)	Aβ42 (% Ctrl)_Mean (Aβ42; p.o., 4 h)
–	–	–	–	–	–	–	13.7 ×10⁻⁶ cm/s	13.6 ×10⁻⁶ cm/s	12.6 nM	12.3 nM	50.1 nM	COc1cnc(C(=O)Nc2ccc(F)c([C@@]3(C)N=C(N)CO[C@H]3C(F)(F)F)c2)cn1 [Compound 166, (2R,3R)—N-{3-[5-amino-3-methyl-2-(trifluoromethyl)-3,6-dihydro-2H-1,4-oxazin-3-yl]-4-fluorophenyl}-5-methoxypyrazine-2-carboxamide]	–	–	–	–	43 % Ctrl	50 % Ctrl
–	–	–	–	–	–	–	10.5 ×10⁻⁶ cm/s	19 ×10⁻⁶ cm/s	6.92 nM	6.76 nM	56.2 nM	C[C@]1(c2cc(NC(=O)c3ccc(C#N)cn3)ccc2F)N=C(N)CO[C@H]1C(F)(F)F [Compound 169]	–	–	–	–	39 % Ctrl	38 % Ctrl
–	–	–	–	–	–	–	12 ×10⁻⁶ cm/s	12 ×10⁻⁶ cm/s	–	631 nM	–	COc1cnc(C(=O)Nc2ccc(F)c([C@@]3(C4CC4)N=C(N)CO[C@@H]3F)c2)cn1 [Compound 216]	–	–	–	–	39 % Ctrl	45 % Ctrl

Reference: patent US9828350B2, “5,6-dihydro-2H-[1,4]oxazin-3-yl-amine derivatives useful as inhibitors of beta-secretase (BACE)” (Janssen Pharmaceutica NV, priority 2010, dated 2017)
